Experiment [1] has as its target T1, S-adenosylmethionine decarboxylase proenzyme (Rattus norvegicus, UniProt P17708).
T1 sequence (P17708 whole entry): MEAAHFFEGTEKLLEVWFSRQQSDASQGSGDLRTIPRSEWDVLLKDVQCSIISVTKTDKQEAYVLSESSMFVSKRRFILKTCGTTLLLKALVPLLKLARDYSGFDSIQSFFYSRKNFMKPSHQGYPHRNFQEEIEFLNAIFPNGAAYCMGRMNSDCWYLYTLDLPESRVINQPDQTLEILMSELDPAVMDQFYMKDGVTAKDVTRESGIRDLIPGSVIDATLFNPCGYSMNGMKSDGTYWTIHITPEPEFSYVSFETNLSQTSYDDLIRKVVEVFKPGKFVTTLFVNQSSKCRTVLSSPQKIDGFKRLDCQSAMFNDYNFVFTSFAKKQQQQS
Kind of experiment: Inhibitory concentration of compound against S-Adenosyl-methionine decarboxylase (SAMDC) from rat liver.

Experiment [2] deals with T2, Diamine oxidase [copper-containing] (Rattus norvegicus, UniProt P36633).
T2 sequence (P36633 whole entry): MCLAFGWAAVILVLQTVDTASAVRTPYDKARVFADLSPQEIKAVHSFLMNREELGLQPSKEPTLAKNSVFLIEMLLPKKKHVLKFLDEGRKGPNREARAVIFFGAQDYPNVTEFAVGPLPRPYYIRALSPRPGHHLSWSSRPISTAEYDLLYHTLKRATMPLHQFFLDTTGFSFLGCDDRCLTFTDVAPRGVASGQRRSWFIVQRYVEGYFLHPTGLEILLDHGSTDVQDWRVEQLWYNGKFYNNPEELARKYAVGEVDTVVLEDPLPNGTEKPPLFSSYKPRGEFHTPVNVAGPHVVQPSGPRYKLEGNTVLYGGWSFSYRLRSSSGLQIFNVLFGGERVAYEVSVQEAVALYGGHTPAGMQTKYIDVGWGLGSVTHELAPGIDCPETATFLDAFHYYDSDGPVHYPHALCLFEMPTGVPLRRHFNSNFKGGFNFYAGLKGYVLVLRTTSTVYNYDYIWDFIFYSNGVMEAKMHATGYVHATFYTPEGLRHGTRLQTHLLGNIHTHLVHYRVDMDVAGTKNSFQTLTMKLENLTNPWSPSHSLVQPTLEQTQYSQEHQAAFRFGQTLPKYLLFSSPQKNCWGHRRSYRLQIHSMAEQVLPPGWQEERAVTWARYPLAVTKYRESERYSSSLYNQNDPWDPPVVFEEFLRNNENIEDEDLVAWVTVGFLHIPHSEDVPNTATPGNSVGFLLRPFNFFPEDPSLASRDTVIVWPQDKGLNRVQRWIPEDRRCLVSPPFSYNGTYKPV
Kind of experiment: In vitro inhibition of Diamine oxidase (DAO) from rat small intestine. Type of experiment: tissue-based.

A further experiment relates to T-24. Kind of experiment: Antiproliferative activity against human T24 bladder carcinoma cells. It is filed as functional, cell-based.
The target of experiment [3] is T3, Ornithine decarboxylase (Rattus norvegicus) (UniProt P09057).
T3 sequence (whole entry): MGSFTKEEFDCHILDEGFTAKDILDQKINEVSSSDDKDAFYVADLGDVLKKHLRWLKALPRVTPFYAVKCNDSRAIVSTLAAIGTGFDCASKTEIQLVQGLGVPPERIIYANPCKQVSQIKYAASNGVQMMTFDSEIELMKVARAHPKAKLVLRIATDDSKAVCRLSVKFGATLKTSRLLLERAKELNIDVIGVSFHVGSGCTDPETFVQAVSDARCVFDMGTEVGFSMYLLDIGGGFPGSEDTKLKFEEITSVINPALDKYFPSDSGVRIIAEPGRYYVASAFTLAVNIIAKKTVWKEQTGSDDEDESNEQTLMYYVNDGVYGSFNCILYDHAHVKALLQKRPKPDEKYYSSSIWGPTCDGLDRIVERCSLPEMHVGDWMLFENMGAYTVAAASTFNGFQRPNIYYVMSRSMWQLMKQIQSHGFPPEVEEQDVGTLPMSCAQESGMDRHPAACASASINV
Kind of experiment: Evaluated for inhibition of rat liver ornithine decarboxylase (ODC) at concentrations of 50 uM; No inhibition.

Active and inactive are the calls of the source. No cut-off for these calls is given here. Some results are limits rather than exact numbers.

For the compound `N=C(N)N/N=C/c1ccnc(C(=N)N)c1`, the IC50 in experiment [1] is 0.33 µM; in experiment [2], 3.2 µM; with T-24 it was more than 180 µM. The inhibition entry in experiment [3] is “inactive”.

Turning to `N=C(NO)N/N=C/c1cccc(C(=N)N)n1`, the IC50 in experiment [1] is 0.24 µM; in experiment [2], 7.5 µM; with T-24, 32.9 µM. Moreover, the inhibition entry in experiment [3] was “inactive”.

Take `N=C(N)c1cccc(-c2cccc(C(=N)N)n2)n1`: the 50% inhibitory concentration (IC50) in experiment [1] amounted to 0.006 µM; in experiment [2] it was 240 µM; with T-24, 1.1 µM. Also, the inhibition entry in experiment [3] was “inactive”.

Turning to `CCCCNC(=N)c1cccc(/C=N/N=C(N)N)c1`, the figures for the IC50 (in experiment [1]; in experiment [2]; in the experiment with T-24) were more than 50 µM, 5 µM and more than 28.5 µM, respectively. In addition, in experiment [3], the inhibition entry is “inactive”.

Turning to `N=C(N)N/N=C/c1cccc(C(N)=O)c1`, the values for the IC50 (in experiment [1]; in experiment [2]; in the experiment on T-24) were 20 µM, more than 100 µM and more than 184 µM, respectively. Besides, the inhibition result in experiment [3] was “inactive”.

On to `N=C(N)N/N=C/c1cccc(C(=N)N)n1`, for which the IC50 turned out to be 0.09 µM in experiment [1], 0.87 µM in experiment [2] and 10.1 µM in the experiment on T-24. The inhibition result in experiment [3] was “inactive”.

Consider `N=C(N)c1cccc(-c2ccnc(C(=N)N)n2)c1`, for which the concentration for half-maximal inhibition (IC50) is 0.006 µM in experiment [1], 10 µM in experiment [2] and 68.2 µM in the experiment with T-24. The inhibition entry in experiment [3] is “inactive”.

As for `N=C(N)c1cc(-c2ccnc(C(=N)N)c2)ccn1`, the IC50 was 0.18 µM in experiment [1], 12.9 µM in experiment [2] and more than 151 µM with T-24. Besides, in experiment [3], the inhibition entry was “inactive”.

For `N=C(N)N/N=C/c1ccnc(C(=N)N)n1`, the IC50 in experiment [1] was 0.53 µM; in experiment [2] it was 8.05 µM; in the experiment with T-24 it was more than 168 µM. Further, the inhibition result in experiment [3] was “inactive”.

Take `N=C(N/N=C/c1cccc(C(=N)N)n1)N/N=C/c1cccc(C(=N)N)n1`: the half-maximal inhibitory concentration (IC50) amounted to 0.12 µM in experiment [1], 0.76 µM in experiment [2] and 49.8 µM in the experiment with T-24. Also, the inhibition entry in experiment [3] is “inactive”.

In the case of `N=C(N)c1cccc(/C=N/N=C(\N)N/N=C/c2cccc(C(=N)N)c2)c1`, the IC50 in experiment [1] was 0.061 µM; in experiment [2], 0.83 µM; with T-24, more than 101 µM. In addition, the inhibition entry in experiment [3] was “inactive”.

Take `N=C(NN)N/N=C/c1cccc(C(=N)N)n1`: the figures for the IC50 (in experiment [1]; in experiment [2]; in the experiment on T-24) were 0.67 µM, 1.66 µM and 83.6 µM, respectively. Also, the inhibition result in experiment [3] was “inactive”.

As for `N=C(N)N/N=C/c1cccc(C(=N)NO)n1`, the IC50 in experiment [1] is 25 µM; in experiment [2], more than 100 µM; with T-24 it was more than 119 µM. In addition, in experiment [3], the inhibition result is “inactive”.

As to `N=C(NO)N/N=C/c1cccc(C(=N)N)c1`, the IC50 in experiment [1] was 0.092 µM; in experiment [2], 20 µM; in the experiment with T-24, 14.1 µM. Moreover, the inhibition entry in experiment [3] was “inactive”.

Turning to `N=C(N)N/N=C/c1cccc(C(=N)N)c1`, the figures for the IC50 (in experiment [1]; in experiment [2]; in the experiment on T-24) were 0.036 µM, 5.6 µM and 9.1 µM, respectively. Moreover, the inhibition result in experiment [3] is “inactive”.

With `C/C(=N\N=C(N)N)c1cccc(C(=N)N)c1`, the IC50 in experiment [1] came out at 0.066 µM; in experiment [2] it was 2.7 µM; in the experiment on T-24, 118 µM. For the same compound, the inhibition result in experiment [3] is “inactive”.

Turning to `CC/C(=N\N=C(N)N)c1cccc(C(=N)N)c1`, the values for the IC50 (in experiment [1]; in experiment [2]; with T-24) were 0.088 µM, 15 µM and more than 152 µM, respectively. The inhibition entry in experiment [3] was “inactive”.

`N=C(NN)c1cccc(/C=N/N=C(N)N)n1`: the half-inhibitory concentration (IC50) in experiment [1] was determined as 0.084 µM; in experiment [2] it was 19 µM; in the experiment on T-24, 60.5 µM. Moreover, the inhibition result in experiment [3] was “inactive”.

Regarding `CCCCNC(=N)N/N=C/c1cccc(C(=N)N)c1`, the IC50 in experiment [1] is 0.16 µM; in experiment [2], 2.8 µM; with T-24, more than 26.8 µM. In experiment [3], the inhibition entry was “inactive”.

For `N=C(N)N/N=C/c1nccc(C(=N)N)n1`, the IC50 in experiment [1] was 11 µM; in experiment [2], 3.4 µM; in the experiment with T-24 it was more than 126 µM. For the same compound, the inhibition entry in experiment [3] was “inactive”.

In the case of `CC(/C=N/NC(=N)N)=N\NC(=N)N` [MITOGUAZONE], the IC50 in experiment [2] came out at 1.5 µM; with T-24, 1.1 µM. In addition, the inhibition result in experiment [3] is “inactive”.

As for `N=C(N)c1cccc(-c2cccc(C(=N)N)c2)c1`, the half-inhibitory concentration (IC50) in experiment [1] is 0.6 µM; in the experiment on T-24 it was more than 160 µM. The inhibition result in experiment [3] is “inactive”.

For `N=C(N)c1ccnc(-c2cc(C(=N)N)ccn2)c1`, the IC50 in experiment [1] is 3.1 µM; in the experiment with T-24, more than 143 µM. In addition, the inhibition result in experiment [3] was “inactive”.

Regarding `N=C(NN)N/N=C/c1cccc(C(=N)N)c1`, the IC50 came out at 0.21 µM in experiment [1], 0.87 µM in experiment [2] and 25 µM in the experiment on T-24. For the same compound, the inhibition entry in experiment [3] is “inactive”.

The term IC50 denotes the concentration that gives 50% inhibition.

Source of the values: ChEMBL document CHEMBL1126674, “S-adenosylmethionine decarboxylase inhibitors: new aryl and heteroaryl analogues of methylglyoxal bis(guanylhydrazone)” (J Med Chem, 1993).
